Molecules are shown by their SMILES. Some results are limits rather than exact numbers.

For the assay, the target named is PIK3CD (Human) (UniProt O00329). Nature of the assay: Assessment of PIK3CD Kinase Activity (Scintillation Proximity Assay). In general terms: In a scintillation proximity assay essentially only radioactivity close to the scintillant gives light.
PIK3CD (Human), sequence (O00329 whole entry, looked up): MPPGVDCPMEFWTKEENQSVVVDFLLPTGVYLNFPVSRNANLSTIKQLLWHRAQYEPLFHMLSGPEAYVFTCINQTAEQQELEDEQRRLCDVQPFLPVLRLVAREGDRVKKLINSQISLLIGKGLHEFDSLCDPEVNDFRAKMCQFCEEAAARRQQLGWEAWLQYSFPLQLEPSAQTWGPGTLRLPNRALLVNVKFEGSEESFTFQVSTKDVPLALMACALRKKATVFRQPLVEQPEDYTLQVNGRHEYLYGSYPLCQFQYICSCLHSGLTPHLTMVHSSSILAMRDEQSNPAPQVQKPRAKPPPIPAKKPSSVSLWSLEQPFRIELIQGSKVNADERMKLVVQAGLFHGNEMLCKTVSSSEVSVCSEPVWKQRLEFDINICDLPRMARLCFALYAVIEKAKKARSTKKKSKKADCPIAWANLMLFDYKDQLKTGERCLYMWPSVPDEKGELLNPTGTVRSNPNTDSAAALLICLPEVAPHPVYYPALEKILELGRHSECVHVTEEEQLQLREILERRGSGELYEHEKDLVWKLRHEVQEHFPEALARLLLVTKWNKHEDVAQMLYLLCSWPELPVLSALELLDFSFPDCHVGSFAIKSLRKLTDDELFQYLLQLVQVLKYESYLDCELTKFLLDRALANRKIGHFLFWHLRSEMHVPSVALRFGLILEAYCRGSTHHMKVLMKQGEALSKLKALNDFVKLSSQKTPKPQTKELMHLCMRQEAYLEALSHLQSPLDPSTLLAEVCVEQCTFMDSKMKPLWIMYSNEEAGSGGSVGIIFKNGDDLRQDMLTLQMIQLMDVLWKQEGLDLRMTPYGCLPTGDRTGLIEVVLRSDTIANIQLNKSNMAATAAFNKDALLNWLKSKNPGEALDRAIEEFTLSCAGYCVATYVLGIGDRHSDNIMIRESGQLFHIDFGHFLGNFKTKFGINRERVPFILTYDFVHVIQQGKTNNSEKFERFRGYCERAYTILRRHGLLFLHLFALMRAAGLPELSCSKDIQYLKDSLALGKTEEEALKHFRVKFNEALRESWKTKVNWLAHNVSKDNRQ
The IC50 is the concentration needed to halve the response being measured. Low readings indicate inhibition by little substance, high ones a need for much substance. For `COc1c(C(C)n2nc(C(F)F)c3c(N)ncnc32)cc(C#N)c(C)c1C1CN(C(C)=O)C1` (centres undefined), the IC50 is not above 10 nM.
In turn, `CCOc1c(C(C)n2nc(C)c3c(N)ncnc32)cc(Cl)c(C#N)c1C1CNC(=O)O1` (centres undefined) came in with an IC50 not above 10 nM.
Next, `CCS(=O)(=O)N1CC(c2c(C#N)c(Cl)cc(C(C)n3nc(C)c4c(N)ncnc43)c2OC)C1` (centres undefined): not above 10 nM.
Next, `CCOc1c(C(C)n2nc(CF)c3c(N)ncnc32)cc(Cl)c(C)c1-c1ccc(C(=O)N(C)C)nc1` (centres undefined): not above 10 nM.
In the case of `COc1c(C(C)n2ccc(=O)c3c(N)ncnc32)cc(Cl)c(C)c1-c1cccnc1` (centres undefined) it was not above 10 nM; in that of `CCOc1c(C(C)n2nc(C)c3c(N)ncnc32)cc(Cl)c(F)c1C1CN(C[C@H](C)O)C1` (some centres undefined), not above 10 nM.
With `CCOc1c(C(C)n2nc(C)c3c(N)ncnc32)cc(C)c(C#N)c1-c1ccc(C(=O)N(C)C)nc1` (centres undefined), the IC50 was not above 10 nM.
In the case of `CCOc1c(C(C)n2nc(-c3cccnc3)c3c(N)ncnc32)cc(Cl)c(C)c1-c1ccc(C(=O)N(C)C)nc1` (centres undefined) it was not above 10 nM; in that of `CCOc1c(C(C)n2cc(C)c3c(N)ncnc32)cc(Cl)c(C#N)c1C1CN(C(C)C)C1` (centres undefined), not above 10 nM; in that of `CCOc1c(C(C)n2nc(CNC)c3c(N)ncnc32)cc(Cl)c(C)c1-c1ccc(C(=O)N(C)C)nc1` (centres undefined), 50 to 200 nM.
`CCOc1c(C(C)n2nc(C)c3c(N)ncnc32)cc(Cl)c(C)c1-c1cnn(CC(=O)N(C)C)c1` (centres undefined) gave an IC50 not above 10 nM.
Next, `CCOc1c(C(C)n2nc(C)c3c(N)ncnc32)cc(Cl)c(C#N)c1C1CCOC1` (centres undefined): not above 10 nM.
Molecule `COc1c(C(C)n2nc(C)c3c(N)ncnc32)cc(Cl)c(C)c1-c1ccnc(N2CC(O)C2)c1` (centres undefined) gave an IC50 not above 10 nM.
Next, `CCOc1c(C(C)n2nc(C)c3c(N)ncnc32)cc(Cl)c(C#N)c1C1CN(C(=O)C(C)C)C1` (centres undefined): not above 10 nM; `CCOc1c(C(C)n2nc(C)c3c(N)ncnc32)cc(Cl)c(C#N)c1C1CN(S(=O)(=O)CC)C1` (centres undefined): not above 10 nM.
Consider `CCOc1c(C(C)n2nc(C)c3c(N)ncnc32)cc(Cl)c(C#N)c1C1CN(C(=O)NC)C1` (centres undefined), for which the IC50 is not above 10 nM.
Consider `COc1c(C(C)n2nc(C(F)F)c3c(N)ncnc32)cc(Cl)c(C)c1-c1ccc(C(=O)N(C)C)nc1` (centres undefined), for which the IC50 is not above 10 nM.
Next, `COc1c(C(C)n2nc(C(F)F)c3c(N)ncnc32)cc(Cl)c(F)c1C1CN(C)C1` (centres undefined): not above 10 nM; `COc1c(C(C)n2nc(C)c3c(N)ncnc32)cc(Cl)c(Cl)c1C1CN(C[C@@H](C)O)C1` (some centres undefined): not above 10 nM; `CCOc1c(C(C)n2ccc(=O)c3c(N)ncnc32)cc(Cl)c(C)c1C1CN(C(C)C)C1` (centres undefined): not above 10 nM.
Next, `CCOc1c(C(C)n2nc(C)c3c(N)ncnc32)cc(Cl)c(C#N)c1C1CN(C)C1` (centres undefined): not above 10 nM.
Take `CCOc1c(C(C)n2nc(-c3cn[nH]c3)c3c(N)ncnc32)cc(Cl)c(C)c1-c1ccc(C(=O)N(C)C)nc1` (centres undefined): the IC50 was not above 10 nM.
Next, `COc1c(C(C)n2nc(C)c3c(N)ncnc32)cc(Cl)c(C)c1C1CN(C(C)=O)C1` (centres undefined): not above 10 nM.
In the case of `CCNC(=O)c1c(C)c(Cl)cc(C(C)n2nc(-c3ccc4cn[nH]c4c3)c3c(N)ncnc32)c1OCC` (centres undefined) it was not above 10 nM.
Next, `CCOc1c(C(C)n2nc(C)c3c(N)ncnc32)cc(Cl)c(C#N)c1-c1ccc(C2=[N+][N+]=C(C)O2)nc1` (centres undefined): not above 10 nM.
For the molecule `COc1c(C(C)n2nc(C)c3c(N)ncnc32)cc(Cl)c(C)c1-c1cncc(C(=O)N(C)CCN)c1` (centres undefined), the IC50 is not above 10 nM.
In the case of `COc1c(C(C)n2nc(C)c3c(N)ncnc32)cc(Cl)c(C)c1CC1CC1` (centres undefined) it was 50 to 200 nM; in that of `CCOc1c(C(C)n2nc(C)c3c(N)ncnc32)cc(Cl)c(C#N)c1C1CNC(=O)C1` (centres undefined), not above 10 nM.
`COc1c(C(C)n2nc(C)c3c(N)ncnc32)cc(Cl)c(C)c1-c1cncc(C(=O)N2CC(C#N)C2)c1` (centres undefined): the IC50 was not above 10 nM.
Next, `CCN1CC(c2c(C)c(Cl)cc(C(C)n3nc(C)c4c(N)ncnc43)c2OC)C1` (centres undefined): not above 10 nM; `COc1c(C(C)n2nc(C)c3c(N)ncnc32)cc(Cl)c(C)c1C1CN(C(=O)c2cnoc2C)C1` (centres undefined): not above 10 nM; `Cc1c(Cl)cc(C(C)n2nc(C)c3c(N)ncnc32)c(OCC(F)F)c1-c1ccc(C(=O)N(C)C)nc1` (centres undefined): not above 10 nM.
As for `CCOc1c(C(C)n2nc(C)c3c(N)ncnc32)cc(Cl)c(F)c1C1COC(=O)N1` (centres undefined), the IC50 was not above 10 nM.
`COc1c(C(C)n2nc(C)c3c(N)ncnc32)cc(Cl)c(C)c1C1CNC(=O)CO1` (centres undefined) showed an IC50 not above 10 nM.
In the case of `CCOc1c(C(C)n2nc(C)c3c(N)ncnc32)cc(C)c(C#N)c1C1CN(CC(C)(C)O)C1` (centres undefined) it was not above 10 nM.
In the case of `CCOc1c(C(C)n2nc(I)c3c(N)ncnc32)cc(Cl)c(C)c1-c1ccc(C(=O)N(C)C)nc1` (centres undefined) it was not above 10 nM; in that of `CCOc1c(C(C)n2nc(C)c3c(N)ncnc32)cc(Cl)c(C#N)c1-c1cncc(-c2ncco2)c1` (centres undefined), not above 10 nM.
Next, `COc1c(C(C)n2nc(C)c3c(N)ncnc32)cc(Cl)c(C)c1-c1ccc(OCCO)nc1` (centres undefined): not above 10 nM.
In turn, `COc1c(C(C)n2nc(C)c3c(N)ncnc32)cc(Cl)c(C#N)c1C1CN(S(=O)(=O)C(C)C)C1` (centres undefined) yielded an IC50 not above 10 nM.
In the case of `CCOc1c(C(C)n2nc(-c3ccc(F)cc3)c3c(N)ncnc32)cc(Cl)c(C)c1-c1ccc(C(=O)N(C)C)nc1` (centres undefined) it was 10 to 50 nM; in that of `COc1c(C(C)n2nc(C)c3c(N)ncnc32)cc(Cl)c(C#N)c1C1CN(S(C)(=O)=O)C1` (centres undefined), not above 10 nM.
`COc1c(C(C)n2ccc(=O)c3c(N)ncnc32)cc(Cl)c(C)c1-c1cccc(C(=O)N(C)C)c1` (centres undefined) came in with an IC50 not above 10 nM.
In the case of `CCOc1c(C(C)n2nc(C)c3c(N)ncnc32)cc(Cl)c(C#N)c1-c1ccc(-c2cnn(C)n2)nc1` (centres undefined) it was not above 10 nM; in that of `CCNC(=O)c1c(C)c(Cl)cc(C(C)n2nc(-c3ccc4oc(N)nc4c3)c3c(N)ncnc32)c1OCC` (centres undefined), not above 10 nM.
Next, `CCNC(=O)c1c(C)c(Cl)cc(C(C)n2nc(-c3ccc4[nH]ccc4c3)c3c(N)ncnc32)c1OCC` (centres undefined): not above 10 nM.
On to `CCOc1c(C(C)n2nc(-c3cccc(F)c3)c3c(N)ncnc32)cc(Cl)c(C)c1-c1ccc(C(=O)N(C)C)nc1` (centres undefined), for which the IC50 was not above 10 nM.
In the case of `CCOc1c(C(C)n2nc(C)c3c(N)ncnc32)cc(Cl)c(C#N)c1C1CN(C(=O)CC)C1` (centres undefined) it was not above 10 nM; in that of `CCOc1c(C(C)n2nc(-c3ccncc3)c3c(N)ncnc32)cc(Cl)c(C)c1-c1ccc(C(=O)N(C)C)nc1` (centres undefined), not above 10 nM.
In the case of `COc1c(C(C)n2nc(C)c3c(N)ncnc32)cc(Cl)c(C)c1C1CN([C@H](C)CO)C1` (some centres undefined) it was not above 10 nM.
Consider `COc1c(C(C)n2nc(C)c3c(N)ncnc32)cc(C)c(C#N)c1C1CN(CC(C)(C)O)C1` (centres undefined), for which the IC50 is not above 10 nM.
The molecule `CCOc1c(C(C)n2nc(C)c3c(N)ncnc32)cc(C)c(C#N)c1-c1cnn(C)c1` (centres undefined) registered an IC50 not above 10 nM.
In the case of `COc1c(C(C)n2nc(C)c3c(N)ncnc32)cc(Cl)c(C)c1-c1cncc(C(=O)N2CCC(O)CC2)c1` (centres undefined) it was not above 10 nM; in that of `CCOc1c(C(C)n2nc(C)c3c(N)ncnc32)cc(Cl)c(C)c1C1CN(C(=O)c2cnn(C)c2)C1` (centres undefined), not above 10 nM.
Next, `CCOc1c(C(C)n2nc(C)c3c(N)ncnc32)cc(Cl)c(C)c1C1CN(C(=O)[C@@H](C)O)C1` (some centres undefined): not above 10 nM.
The molecule `CCOc1c(C(C)n2nc(C)c3c(N)ncnc32)cc(Cl)c(C)c1-c1ccnc(C(=O)N(C)CCO)c1` (centres undefined) displayed an IC50 not above 10 nM.
In the case of `CCN1CC(c2c(C#N)c(Cl)cc(C(C)n3nc(C)c4c(N)ncnc43)c2OC)C1` (centres undefined) it was not above 10 nM.
In turn, `COc1c(C(C)n2nc(C)c3c(N)ncnc32)cc(Cl)c(C)c1C1CN(C(=O)[C@H](C)O)C1` (some centres undefined) displayed an IC50 not above 10 nM.
In the case of `COc1c(C(C)n2nc(C)c3c(N)ncnc32)cc(Cl)c(C)c1C1CN(C2COC2)C1` (centres undefined) it was not above 10 nM.
Molecule `COc1c(C(C)n2nc(C)c3c(N)ncnc32)cc(Cl)c(C)c1-c1ccc(C(=O)N(C)C)nc1` (centres undefined) registered an IC50 not above 10 nM.
Molecule `COc1c(C(C)n2nc(C)c3c(N)ncnc32)cc(Cl)c(C#N)c1C1CN(CCO)C1` (centres undefined) had an IC50 not above 10 nM.
Next, `COc1c(C(C)n2nc(C(F)F)c3c(N)ncnc32)cc(C#N)c(C)c1C1CN(CC(C)(C)O)C1` (centres undefined): not above 10 nM.
Next, `COc1c(C(C)n2nc(C)c3c(N)ncnc32)cc(Cl)c(Cl)c1C1CN(CCO)C1` (centres undefined): not above 10 nM; `CCC(=O)N1CC(c2c(C#N)c(Cl)cc(C(C)n3nc(C)c4c(N)ncnc43)c2OC)C1` (centres undefined): not above 10 nM; `CCOC(=O)N1CC(c2c(C#N)c(Cl)cc(C(C)n3nc(C)c4c(N)ncnc43)c2OCC)C1` (centres undefined): not above 10 nM.
Next, `CCOc1c(C(C)n2nc(C)c3c(N)ncnc32)cc(Cl)c(C#N)c1C1CN(C(C)C)C1` (centres undefined): not above 10 nM; `COc1c(C(C)n2ncc3c(N)ncnc32)cc(Cl)c(C)c1-c1ccnc(C(=O)N(C)C)c1` (centres undefined): 10 to 50 nM.
Turning to `COc1c(C(C)n2nc(C)c3c(N)ncnc32)cc(C#N)c(C)c1-c1cnn(C)c1` (centres undefined), the IC50 was in the range of 10 to 50 nM.
Next, `CCOc1c(C(C)n2nc(C)c3c(N)ncnc32)cc(C)c(C#N)c1C1CN(C[C@H](C)O)C1` (some centres undefined): not above 10 nM.
`COc1c(C(C)n2nc(C)c3c(N)ncnc32)cc(Cl)c(C)c1C1CN(CC(C)(C)O)C1` (centres undefined) registered an IC50 not above 10 nM.
In the case of `COc1c(C(C)n2nc(C)c3c(N)ncnc32)cc(Cl)c(C)c1-c1cnn(C2CCN(C)CC2)c1` (centres undefined) it was not above 10 nM.
`CCOc1c(C(C)n2nc(C)c3c(N)ncnc32)cc(Cl)c(C#N)c1-c1cncc(C#N)c1` (centres undefined): the IC50 was not above 10 nM.
Turning to `CCOc1c(C(C)n2nc(C)c3c(N)ncnc32)cc(Cl)c(C)c1C1CNC(=O)C1` (centres undefined), the IC50 is not above 10 nM.
Next, `CNC(=O)N1CC(c2c(C#N)c(Cl)cc(C(C)n3nc(C)c4c(N)ncnc43)c2OC)C1` (centres undefined): not above 10 nM; `COc1c(C(C)n2ccc(=O)c3c(N)ncnc32)cc(Cl)c(C)c1-c1cncc(C#N)c1` (centres undefined): not above 10 nM.
For `COc1c(C(C)n2nc(C)c3c(N)ncnc32)cc(Cl)c(C)c1C1CN(CC(C)C)C1` (centres undefined), the IC50 was not above 10 nM.
Next, `COc1c(C(C)n2nc(C(F)F)c3c(N)ncnc32)cc(C#N)c(C)c1C1CN(C[C@@H](C)O)C1` (some centres undefined): not above 10 nM.
As to `COc1c(C(C)n2nc(C)c3c(N)ncnc32)cc(Cl)c(C)c1-c1cnn(CC(=O)N(C)C)c1` (centres undefined), the IC50 was not above 10 nM.
Next, `CCOc1c(C(C)n2nc(C)c3c(N)ncnc32)cc(Cl)c(C#N)c1C1CN(C(=O)OC(C)C)C1` (centres undefined): not above 10 nM.
Next, `CCOc1c(C(C)n2nc(C)c3c(N)ncnc32)cc(Cl)c(C#N)c1C1CN(CC(C)C)C1` (centres undefined): not above 10 nM.

The record behind these values is the Kinase Knowledgebase extract (Sharma et al. 2016).
